# According to patent US10617734B2, “STAT3 and ERK signal pathway inhibitor comprising mogrosides and analogs thereof” (BEIJING UNIVERSITY OF AGRICULTURE, priority 2014, dated 2020):
# Tests used:
# [1] = test system: anti-apoptotic protein Bcl-2; assay: Western Blotting of Bcl-2 in K562 cells; format: cell-based, human; details: leukemia cells K562, 10 μmol/L, 24 h
# Protocol: (§1) The STAT3 and ERK signal pathways can regulate cyclins and apoptosis genes, and in order to verify the effects of […] and mogrol, the expression status of downstream genes of STAT3 and ERK was detected, wherein the influences of the three mogrosides and analogs thereof, i.e. Mogrol I E1, Mogrol II A2 and mogrol, on Bcl-2 and P21 proteins in the histiocytic lymphoma U937 cells, human melanoma A875 cells and leukemia cells K562 were determined, respectively.
# (§2) The regulation of Bcl-2 and P21 proteins by mogrosides and analog thereof to the was detected by Western Blotting, specifically: histiocytic lymphoma U937 cells, human melanoma A875 cells and leukemia cells K562 (1×10^6 cells/well) were inoculated into a 6-well culture plate overnight, and 0 and 10 μmol/L of the mogrosides and analogs thereof were added respectively, and kept cultured for 24 h. […]
# (§3) The protein concentration was measured with bovine serum albumin (BSA) as the standard. 50 μg of the total proteins were separated by polyacrylamide gel electrophoresis with 12% SDS, and electrophoretically transferred to a PVDF membrane (polyvinylidene fluoride membrane), and blocked for 1 h by 5% of skim milk (containing 0.1% of Tween 20), and then antibodies P21, Bcl-2 and β-actin were added, wherein the primary antibody was incubated at 4° C. overnight (β-actin was used as reference loading amount); the membrane was washed for 3 times with TBS-T, 5 min each time; secondary antibody marked by horseradish peroxidase (HRP) was added for incubation at room temperature for 1 h, the membrane was washed with rinse solution (TBS-T) for 3 times, 10 min each time, and then ECL was added for incubation in dark for 5 min, and subsequently, a fluorescence imaging analyzer was used for image development and scanning analysis.
# [2] = test system: cycle regulatory protein P21; assay: Western Blotting of P21 in K562 cells; format: cell-based, human; details: leukemia cells K562, 10 μmol/L, 24 h
# Protocol: as §1, §2, §3
# [3] = test system: cycle regulatory protein P21; assay: Western Blotting of P21 in U937 cells; format: cell-based; details: 10 μmol/L, 24 h
# Protocol: as §1, §2, §3
# [4] = test system: phosphorylated STAT3 (P-STAT3, Tyr705); assay: Western Blotting of phosphorylated STAT3 in A875 cells; format: cell-based, human; details: melanoma A875 cells, 10 μmol/L, 24 hours
# Protocol: (§4) The inhibition of the STAT3 and ERK signal pathways achieved by Mogroside I E1, Mogroside II A2 and mogrol was detected by Western Blotting, specifically:
# Group 2: human melanoma A875 cells (1×10^6 cells/well) were inoculated into a 6-well culture plate for staying overnight, and 0 and 10 μmol/L of Mogroside I E1, Mogroside II A2 and mogrol were added respectively, and the culture was continued for 24 hours;
# (§5) After the termination of the cell culture, the culture solution was removed, and the residue was washed with PBS (0.01 mol/L, pH 7.4), and then a cell lysis solution containing protease inhibitors was added at an amount of 50 μl/well, and the mixture was placed in an ice bath for lysis at 4° C. for 30 min and then centrifuged at 14000 r/min for 10 min, and then total proteins were obtained from the supernatant;
# (§6) The protein concentrations were measured with bovine serum albumin (BSA) as the standard. 50 μg of the total proteins was separated by polyacrylamide gel electrophoresis with 12% […], electrophoretically transferred to a PVDF membrane (polyvinylidene fluoride membrane), and blocked for 1 h by 5% of skim milk (containing 0.1% of Tween 20), and then antibodies p-STAT3 (Tyr705) and p-Erk1/2 as well as β-actin were added, and the primary antibody was incubated at 4° C. overnight (β-actin was used as reference in loading amount); the membrane was washed for 3 times with TBS-T, 5 min each time; secondary antibody marked by horseradish peroxidase (HRP) was added for incubation at room temperature for 1 h, the membrane was washed for 3 times with a wash solution (TBS-T), 10 min each time, and then ECL was added for incubation in dark for 5 min, and subsequently, a fluorescence imaging analyzer was used for image development and scanning analysis, and the results of Western Blotting detection are shown in FIGS. 4 to 6.
# [5] = test system: anti-apoptotic protein Bcl-2; assay: Western Blotting of Bcl-2 in U937 cells; format: cell-based; details: 10 μmol/L, 24 h
# Protocol: as §1, §2, §3
# [6] = test system: leukemia cells K562; assay: MTT colorimetric experiment, cell growth inhibition; format: cell-based, human; details: leukemia cells K562, 0.1, 1, 10, 100, 200 and 250 μmol/L, MTT after 24 h
# Protocol: (§7) MTT colorimetric experiments were performed after 24 h, respectively: prior to the finish of each experiment, 15 μl of MTT solution in a concentration of 5 mg/ml was added to each well, and the culture was continued in dark at 37° C. for 4 h, then 150 μl of DMSO was added to each well and oscillating in a shaker for 10 min, and then the residue was placed in a microplate reader to detect the optical density OD) at 490 nm, and the inhibition rate was calculated according to the following formula: cell growth inhibition rate (control group OD490—test group OD490)/control group OD490×100%.
# [7] = test system: phosphorylated STAT3 (P-STAT3, Tyr705); assay: Western Blotting of phosphorylated STAT3 in K562 cells; format: cell-based, human; details: leukemia cells K562, 10 μmol/L, 24 hours
# Protocol: as §4
# Group 3: leukemia cells K562 (1×10^6 cells/well) were inoculated into a 6-well culture plate for staying overnight, and 0 and 10 μmol/L of Mogroside I E1 Mogroside II A2 and mogrol were added respectively, and the culture was continued for 24 hours;
# as §5, §6
# [8] = test system: human melanoma A875 cells; assay: Cell apoptosis, Annexin V-FITC/PI, flow cytometer; format: cell-based; details: 10 μmol/L, 24 h
# Protocol: Mogroside I E1, Mogroside II A2 and mogrol) for 24 h, cells were collected and washed twice with 200 μl of cold PBS, and then the cells were collected again; 100 μl of binding buffer was added for re-suspending the cells, and after the addition of 2 μl of Annexin V-FITC and well mixing, the resulting mixture was placed in dark at room temperature for 10 min, and then 5 μl of propidium iodide (PI) was added and then well mixed; the mixture was placed in dark at room temperature for 10 min, and detected by flow cytometer, and the results are shown in FIGS. 13-15.
# [9] = test system: lymphoma U937 cells; assay: MTT colorimetric experiment, cell growth inhibition; format: cell-based; details: U937 cells, 0.1, 1, 10, 100, 200 and 250 μmol/L, MTT after 24 h
# Protocol: as §7
# [10] = test system: human melanoma A875 cells; assay: as above; format: cell-based; details: melanoma A875 cells, 0.1, 1, 10, 100, 200 and 250 μmol/L, MTT after 24 h
# Protocol: as §7
# [11] = test system: phosphorylated STAT3 (P-STAT3, Tyr705); assay: Western Blotting of phosphorylated STAT3 in U937 cells; format: cell-based; details: 10 μmol/L, 24 hours
# Protocol: as §4
# Group 1: histiocytic lymphoma U937 cells (1×10^6 cells/well) were inoculated into a 6-well culture plate for staying overnight, and 0 and 10 μmol/L of Mogroside I E1, Mogroside II A2 and mogrol were added respectively, and the culture was continued for 24 hours;
# as §5, §6
structure (smiles),measurement,setting,value
C[C@H](CC[C@@H](O)C(C)(C)O)[C@H]1CC[C@@]2(C)[C@@H]3CC=C4[C@@H](CC[C@H](O)C4(C)C)[C@]3(C)[C@H](O)C[C@]12C [mogrol],expression of anti-apoptotic protein Bcl-2,[1],significantly down-regulated
same,expression of cycle regulatory protein P21,[2],significantly up-regulated
same,expression of cycle regulatory protein P21,[3],significantly up-regulated
same,expression level of phosphorylated STAT3 (P-STAT3),[4],significantly decreased
same,expression of anti-apoptotic protein Bcl-2,[5],significantly down-regulated
same,cell growth inhibition rate,[6],inhibitory effect on the proliferation
same,expression level of phosphorylated STAT3 (P-STAT3),[7],significantly decreased
same,cell apoptosis,[8],induce the apoptosis
same,cell growth inhibition rate,[9],inhibitory effect on the proliferation
same,cell growth inhibition rate,[10],inhibitory effect on the proliferation
same,expression level of phosphorylated STAT3 (P-STAT3),[11],significantly decreased
